Where two headings read alike, the source gives them in different places.

The test system of data set [1] is SMN2 minigene (full length SMN2 minigene mRNA containing SMN2 exon 7). The experiment in a line: SMN2 minigene mRNA splicing RT-qPCR assay in cultured cells. The data set is classed as cell-based, human. The following applies: Homo sapiens, HEK293-H, read-out: EC1.5x for production of full length SMN2 mRNA. The method, boiled down: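 HEK293H cells stably carrying the SMN2-A minigene treated 24 h at 37° C with compound (DMSO, 200× stock), then lysed. Multiplex RT-qPCR (SMN primers 0.4 μM final; 40 cycles) measures full-length exon 7-containing minigene mRNA, normalized to GAPDH and to vehicle; EC1.5x derived and binned by stars.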

The test system of another data set is Smn protein. The experiment in a line: Smn protein assay in cultured cells (SMN HTRF). It counts as cell-based, human. The following applies: for EC1.5x (concentration giving 1.5-fold Smn protein increase): SMA Type 1 patient fibroblast cells (GM03813), 7-point concentration curve, SMN HTRF, concentration producing 1.5 times Smn protein vs DMSO vehicle control, read-out: EC1.5x for Smn protein expression. The method, boiled down: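 Lysates in RIPA with protease inhibitors are incubated overnight at room temperature with HTRF anti-SMN antibodies. EC1.5x is derived from fold increase in ΔF over vehicle.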

The mark [2] stands for this setting: HEK293H cells stably transfected with SMN2-A minigene, 24 hours, 7-point concentration curve, 1.5-fold relative to vehicle-treated cells.
Setting [3] is: SMA patient fibroblast cells, 48 hours, 7-point concentration data, fold increase relative to vehicle control (SMN HTRF).

`CC(=O)O.CC(=O)O.COc1nc(C)cn2cc(-c3cc4ccc(N5CCN(C)[C@H](C)C5)cc4oc3=O)nc12` [Compound 759, 7-[(3R)-3,4-dimethylpiperazin-1-yl]-3-(8-methoxy-6-methylimidazo[1,2-a]pyrazin-2-yl)-2H-chromen-2-one acetate (1:2)] yielded a melting point of 227 to 229 °C. The EC (1.5-fold) in data set [1] (setting [2]) was less than 0.1 µM. For the same compound, in the data set on Smn protein (setting [3]), the “maximum fold (Fold) increase of Smn protein” value (shortened to “maximum fold (Fold) increase”) was “*** (fold increase between >1.35 and ≤1.5)”.

For the compound `Cc1cn2cc(-c3cc4ccc(N5CCC(C)(N)CC5)cc4oc3=O)nc2c(C)n1` [Compound 920, 7-(4-amino-4-methylpiperidin-1-yl)-3-(6,8-dimethylimidazo[1,2-a]pyrazin-2-yl)-2H-chromen-2-one], the melting point was in the range of 190 to 192 °C. Besides, the EC (1.5-fold) in data set [1] (setting [2]) is less than 0.1 µM. Further, in the data set with Smn protein (48 hours), the EC1.5x (concentration giving 1.5-fold Smn protein increase) was less than 300 nM. Also, the “maximum fold (Fold) increase” value in the data set on Smn protein (setting [3]) was “***** (fold increase >1.65)”.

The compound `Cc1nn2cc(-c3cc4ccc(N5CCCNCC5)cc4oc3=O)nc2s1` [Compound 450, 7-(1,4-diazepan-1-yl)-3-(2-methylimidazo[2,1-b][1,3,4]thiadiazol-6-yl)-2H-chromen-2-one] had a melting point of 215 to 218 °C. Further, the EC (1.5-fold) in data set [1] (setting [2]) lay in the range of 1 to 3 µM. For the same compound, the EC1.5x (concentration giving 1.5-fold Smn protein increase) in the data set on Smn protein (48 hours) was in the range of 1000 to 3000 nM. The “maximum fold (Fold) increase” value with Smn protein (setting [3]) is “*** (fold increase between >1.35 and ≤1.5)”.

In turn, `Cc1cn2cc(-c3cc4ccc(N5C[C@@H]6CN(C(C)C)C[C@@H]6C5)cc4oc3=O)nc2c(C)n1` [Compound 743, 3-(6,8-dimethylimidazo[1,2-a]pyrazin-2-yl)-7-[(3aR,6aS)-5-(propan-2-yl)hexahydropyrrolo[3,4-c]pyrrol-2(1H)-yl]-2H-chromen-2-one] displayed a melting point of 249 to 258 °C. The EC (1.5-fold) in data set [1] (setting [2]) is less than 0.1 µM. Besides, the EC1.5x (concentration giving 1.5-fold Smn protein increase) in the data set on Smn protein (48 hours) was less than 300 nM. Further, the “maximum fold (Fold) increase” value in the data set on Smn protein (setting [3]) is recorded as “***** (fold increase >1.65)”.

The compound `Cc1nccn2cc(-c3cc4ccc(N5CCCNCC5)cc4oc3=O)cc12` [Compound 587, 7-(1,4-diazepan-1-yl)-3-(1-methylpyrrolo[1,2-a]pyrazin-7-yl)-2H-chromen-2-one] showed a melting point of 210 to 213 °C. The EC (1.5-fold) in data set [1] (setting [2]) was less than 0.1 µM. The EC1.5x (concentration giving 1.5-fold Smn protein increase) in the data set with Smn protein (48 hours) is less than 300 nM. Moreover, the “maximum fold (Fold) increase” value in the data set on Smn protein (setting [3]) was “**** (fold increase between >1.5 and ≤1.65)”.

`C[C@H]1CN(c2ccc3cc(-c4cn5ccsc5n4)c(=O)oc3c2)CCN1` [Compound 205, 3-(imidazo[2,1-b][1,3]thiazol-6-yl)-7-[(3S)-3-methylpiperazin-1-yl]-2H-chromen-2-one] returned a melting point of 230 to 233 °C. The EC (1.5-fold) in data set [1] (setting [2]) was less than 0.1 µM. The “maximum fold (Fold) increase” value with Smn protein (setting [3]) was “*** (fold increase between >1.35 and ≤1.5)”.

As to `Cc1cn2cc(-c3cc4ccc(CCN(CCO)CCO)cc4oc3=O)nc2c(C)n1` [Compound 875, 7-{2-[bis(2-hydroxyethyl)amino]ethyl}-3-(6,8-dimethylimidazo[1,2-a]pyrazin-2-yl)-2H-chromen-2-one], the melting point lay within 184 to 188 °C. Also, in data set [1] (setting [2]), the EC (1.5-fold) is less than 0.1 µM. For the same compound, the EC1.5x (concentration giving 1.5-fold Smn protein increase) in the data set on Smn protein (48 hours) was less than 300 nM. For the same compound, in the data set with Smn protein (setting [3]), the “maximum fold (Fold) increase” value is “**** (fold increase between >1.5 and ≤1.65)”.

`Cc1ccc2cc(-c3cc4ccc(N5CCNCC5)cc4oc3=O)cn2n1` [Cpd 641, 3-(2-methylpyrrolo[1,2-b]pyridazin-6-yl)-7-(piperazin-1-yl)-2H-chromen-2-one]: the melting point is 213 to 216 °C. Also, the EC (1.5-fold) in data set [1] (24 h) fell in the range of 0.3 to 1 µM. Also, the “maximum fold (Fold) increase” value in the data set with Smn protein was “* (key: *: maximum fold increase of ≤1.2; **: fold increase between >1.2 and ≤1.35; ***: fold increase between >1.35 and ≤1.5; ****: fold increase between >1.5 and ≤1.65; *****: fold increase >1.65)”.

On to `Cc1cn2cc(-c3cc4ccc(N5CC[C@H]6CNC[C@H]65)cc4oc3=O)nc2c(C)n1` [Compound 687, 3-(6,8-dimethylimidazo[1,2-a]pyrazin-2-yl)-7-[(3aS,6aS)-hexahydropyrrolo[3,4-b]pyrrol-1(2H)-yl]-2H-chromen-2-one], for which the melting point was 243 to 253 °C. Also, in data set [1] (setting [2]), the EC (1.5-fold) is less than 0.1 µM. The EC1.5x (concentration giving 1.5-fold Smn protein increase) in the data set on Smn protein (48 hours) fell in the range of 1000 to 3000 nM. The “maximum fold (Fold) increase” value with Smn protein (setting [3]) was “*** (fold increase between >1.35 and ≤1.5)”.

The compound `CN1CCCN(c2cc(F)c3cc(-c4cc(F)cc(F)c4)c(=O)oc3c2)CC1` [Compound 365, 3-(3,5-difluorophenyl)-5-fluoro-7-(4-methyl-1,4-diazepan-1-yl)-2H-chromen-2-one] came in with a melting point of 161 to 164 °C. Besides, in data set [1] (setting [2]), the EC (1.5-fold) lay in the range of 1 to 3 µM. Besides, the “maximum fold (Fold) increase” value in the data set with Smn protein (setting [3]) was “* (maximum fold increase of ≤1.2)”.

For `Cc1cn2cc(-c3cc4ccc(N[C@@H]5CCN(C)C5)cc4oc3=O)nc2c(C)n1` [Compound 730, 3-(6,8-dimethylimidazo[1,2-a]pyrazin-2-yl)-7-{[(3R)-1-methylpyrrolidin-3-yl]amino}-2H-chromen-2-one], the melting point is 226 to 233 °C. In addition, in data set [1] (setting [2]), the EC (1.5-fold) was less than 0.1 µM. Moreover, the “maximum fold (Fold) increase” value in the data set with Smn protein (setting [3]) is “*** (fold increase between >1.35 and ≤1.5)”.

`Cc1cc([N+](=O)[O-])c2nc(-c3cc4ccc(N5CCN[C@@H](C)C5)cc4oc3=O)cn2c1` [Compound 703, 3-(6-methyl-8-nitroimidazo[1,2-a]pyridin-2-yl)-7-[(3S)-3-methylpiperazin-1-yl]-2H-chromen-2-one] gave a melting point of 251 to 259 °C. Also, the EC (1.5-fold) in data set [1] (setting [2]) is 1 to 3 µM. Besides, the “maximum fold (Fold) increase” value in the data set with Smn protein (setting [3]) was “** (fold increase between >1.2 and ≤1.35)”.

Consider `C[C@H]1CN(c2ccc3cc(-c4cn5ccc(C(F)(F)F)cc5n4)c(=O)oc3c2)CCN1` [Compound 268, 7-[(3S)-3-methylpiperazin-1-yl]-3-[7-(trifluoromethyl)imidazo[1,2-a]pyridin-2-yl]-2H-chromen-2-one], for which the melting point lay within 252 to 260 °C. Besides, the EC (1.5-fold) in data set [1] (setting [2]) fell in the range of 0.3 to 1 µM. In the data set on Smn protein (setting [3]), the “maximum fold (Fold) increase” value is on record as “* (maximum fold increase of ≤1.2)”.

The compound `CN1CCCN(c2ccc3cc(-c4cn5cc(C6CC6)cc(F)c5n4)c(=O)oc3c2)CC1` [Compound 499, 3-(6-cyclopropyl-8-fluoroimidazo[1,2-a]pyridin-2-yl)-7-(4-methyl-1,4-diazepan-1-yl)-2H-chromen-2-one] registered a melting point of 234 to 244 °C. In addition, in data set [1] (setting [2]), the EC (1.5-fold) fell in the range of 0.3 to 1 µM. For the same compound, the “maximum fold (Fold) increase” value with Smn protein (setting [3]) is given as “* (maximum fold increase of ≤1.2)”.

With `CC(C)NCc1ccc2cc(-c3nc4ccccc4s3)c(=O)oc2c1` [Compound 8, 3-(1,3-benzothiazol-2-yl)-7-[(propan-2-ylamino)methyl]-2H-chromen-2-one], the melting point was 164 to 168 °C. The EC (1.5-fold) in data set [1] (setting [2]) is 1 to 3 µM. Further, the “maximum fold (Fold) increase” value with Smn protein (setting [3]) is given as “* (maximum fold increase of ≤1.2)”.

`CN1CCN(c2ccc3cc(-c4cn5ccc(C(F)(F)F)cc5n4)c(=O)oc3c2)CC1` [Compound 115, 7-(4-methylpiperazin-1-yl)-3-[7-(trifluoromethyl)imidazo[1,2-a]pyridin-2-yl]-2H-chromen-2-one] yielded a melting point of 274 to 280 °C. Moreover, the EC (1.5-fold) in data set [1] (setting [2]) fell in the range of 0.3 to 1 µM. Moreover, the “maximum fold (Fold) increase” value with Smn protein (setting [3]) is “*** (fold increase between >1.35 and ≤1.5)”.

On to `Cc1cn2cc(-c3cc4ccc(O[C@@H]5CCN(C(C)C)C5)cc4oc3=O)nc2c(C)n1` [Compound 891, 3-(6,8-dimethylimidazo[1,2-a]pyrazin-2-yl)-7-{[(3R)-1-(propan-2-yl)pyrrolidin-3-yl]oxy}-2H-chromen-2-one], for which the melting point was in the range of 176 to 179 °C. In data set [1] (setting [2]), the EC (1.5-fold) lay in the range of 0.1 to 0.3 µM. Moreover, in the data set with Smn protein (48 hours), the EC1.5x (concentration giving 1.5-fold Smn protein increase) was in the range of 300 to 1000 nM. Also, the “maximum fold (Fold) increase” value with Smn protein (setting [3]) is “***** (fold increase >1.65)”.

Take `Cc1ccn2nc(-c3cc4ccc(N5CCN[C@H](C)C5)cc4oc3=O)cc2c1` [Compound 306, 7-[(3R)-3-methylpiperazin-1-yl]-3-(5-methylpyrazolo[1,5-a]pyridin-2-yl)-2H-chromen-2-one]: the melting point fell in the range of 183 to 187 °C. In data set [1] (setting [2]), the EC (1.5-fold) fell in the range of 0.1 to 0.3 µM. For the same compound, in the data set on Smn protein (setting [3]), the “maximum fold (Fold) increase” value is “*** (fold increase between >1.35 and ≤1.5)”.

Compound `Cc1ccn2cc(-c3cc4ccc(N5CCNCC5)cc4oc3=O)nc2n1` [Compound 223, 3-(7-methylimidazo[1,2-a]pyrimidin-2-yl)-7-(piperazin-1-yl)-2H-chromen-2-one] gave a melting point of 295 to 298 °C. Besides, the EC (1.5-fold) in data set [1] (setting [2]) lay within 0.3 to 1 µM. The “maximum fold (Fold) increase” value in the data set with Smn protein (setting [3]) is “* (maximum fold increase of ≤1.2)”.

The compound `COc1cccc(-c2cc3ccc(N4CCN(C)CC4)cc3oc2=O)n1` [Compound 257, 3-(6-methoxypyridin-2-yl)-7-(4-methylpiperazin-1-yl)-2H-chromen-2-one] yielded a melting point of 162 to 164 °C. In data set [1] (setting [2]), the EC (1.5-fold) fell in the range of 1 to 3 µM. Moreover, the “maximum fold (Fold) increase” value in the data set on Smn protein (setting [3]) was “* (maximum fold increase of ≤1.2)”.
